Results reported in US11505592B2, “Diagnosis and therapy of multiple sclerosis” (PRINDEX S.R.L., priority 2015, dated 2022).

Test system: MO3-13 cells
Experiment: Determination of reactive oxygen species (DCF fluorescence) in MO3-13 cells
Format: cell-based, human
Conditions: 50 μM peptide 30 min
Protocol: (§1) FIG. 10A: DDSK peptide reverts the effects of Ig from MS patients on ROS levels in MO3-13 cells. MO3-13 cells were grown to semi-confluence in 24 multiwell plates and incubated for 18 h in medium containing 0.2% FBS. The cells were washed twice with FBS free medium, incubated with 50 μM of DDSK for 30 min and then with 200 μg/ml of IgG from Control (IgGCtr) or MS (IgGMS) patients for 30 min. Then, the cells were incubated with 10 μM DCHF-DA for 10 min, washed three times and DCF fluorescence was measured using a plate reader fluorometer. The histograms show the mean+/−SEM values obtained in 5 different experiments from 7 control and 7 MS subjects. # p<0.05 vs IgGCtr; *p<0.05 vs IgGMS.
as §1, with “MO3-13” for “FIG. 10A: DDSK peptide reverts the effects of Ig from MS patients on ROS levels in MO3-13 cells. MO3-13”, “Scrambled peptide (Sc)” for “DDSK”, “obtained” for “obtained in 5 different experiments”, “3” for “7”, “subjects.” for “subjects. # p<0.05 vs IgGCtr;”, “IgGCtr.” for “IgGMS.”
ROS levels were determined using the membrane-permeant fluorogenic probe 5,6-carboxy-2′,7′-dichlorofluoresceindiacetate, DCHFDA (Molecular Probes, Leiden, the Netherlands). The assay was based on the fluorescence detection of dichlorofluorescein (DCF), formed by ROS-mediated oxidation of the non-fluorescent precursor, dichlorofluorescin.
MO3-13 cells were grown to semi-confluence in 24 multiwell plates (45000 cell/well) and incubated for 18 h in medium containing 0.2% FBS before the experiments. […] DCF fluorescence was measured using the plate reader Fluoroskan Ascent FL fluorometer (Thermo Electron Oy, Vantaa, Finland) and data analyzed by Ascent software.

Sequence: DDSKVFKEGS
- effect of peptide preincubation on ROS levels of IgG MS treated cells (then 200 μg/ml IgG MS 30 min): reverted the effect
- effect of peptide preincubation on ROS levels of IgGCtr treated samples (then 200 μg/ml IgGCtr 30 min): did not significantly affect
